Results from US6103700A, “Fluoro labelled anthracyclinone and anthracycline derivatives” (Pharmacia & Upjohn S.p.A., priority 1996, dated 2000).

What was measured:
Aβ25-35 peptide = Aβ25-35 peptide (Homo sapiens, UniProt P05067); assay: Antifibrillogenic activity, thioflavine T (ThT) assay with Aβ25-35 peptide; assay type: biochemical; settings: compound 30 μM, Aβ25-35 peptide 100 μM, 50 μM phosphate buffer pH 5, 25° C., 24 hours; ThT 47 μM; ex 420 nm, em 490 nm; less fluorescence = less amyloid; read-out: ThT fluorescence (% of control)
Procedure: The compounds of the present invention are also endowed with antifibrillogenic activity. When Aβ peptides are incubated with the compounds, a reduction in the formation of amyloid fibrils is observed. The amount of amyloid that results from peptide aggregation can be evaluated using the thioflavine T (ThT) assay as reported in the literature by Naiki et al., Analytical Biochemistry 1989, vol. 177, p. 244 and by H. LeVine III, Protein Science 1993, vol.2, p. 404. Compounds are incubated at a concentration of 30 μM, in 50 μM phosphate buffer pH 5 at 25° C. during 24 hours, with 100 μM peptide. The incubated samples are then diluted with sodium citrate buffer pH 5 containing 47 μM ThT. Fluorescence was measured with excitation at 420 nm and emission at 490 nm in a Kontron fluorescence spectrophotometer and the values were averaged after subtracting the background fluorescence of ThT. The less the fluorescence the less the amount of amyloid formed during the incubation period.
The following data obtained with the Aβ25-35 peptide are reported as examples.

Aβ25-35 fibrils = Aβ25-35 fibrils (Homo sapiens, UniProt P05067); assay: Binding of anthracyclinones and anthracyclines to Aβ25-35 fibrils (fluorescent detection of bound compound); settings: 10% dimethylsulfoxide in distilled water, 60 minutes, room temperature, rectangular hyperbola (binding isotherm), read-out: EC50 (affinity of the test compounds for the Aβ fibrils)
Procedure: Binding of anthracyclinones and anthracyclines to Aβ fibrils
Fibrils from Aβ25-35 peptide are suspended in a solution of 10% dimethylsulfoxide in distilled water containing the test compound at various concentrations and incubated at room temperature for 60 minutes. After incubation, the samples are centrifuged at 15000 g for 10 minutes at room temperature and the supernatant withdrawn. Fibril pellets are washed three times with 0.3 ml of 10% DMSO in distilled water, dissolved in ethanol and the bound compound is quantified by fluorescent detection. EC50 are then calculated using rectangular hyperbola (binding isotherm) equation and represents the affinity of the test compounds for the Aβ fibrils.

Aβ1-40 fibrils = assay: Binding to Aβ1-40 fibrils (filtration, HPLC quantification of bound compound); settings: 3% dimethylsulfoxide in water, 15 minutes, room temperature, Hill equation
Procedure: The precipitated fibrils are centrifuged, washed with distilled water, centrifuged again and resuspended in distilled water at a concentration of […]. The fibril suspension is sonocated for one minute and freezed at -20° C. in aliquots until use. […] The resulting suspension is incubated at room temperature for 15 minutes. After incubation, the suspension is loaded onto a Millipore ultrafree MC filter (0.22 μm pore retention) and centrifuged for 5 minutes at 4° C. […] The amount of bound compound is quantified by HPLC. The aspecific binding of the compounds to the filter is evaluated by processing samples of the compounds, as previously described, in the absence of fibrils. The amount of compound bound to the filter is subtracted from the total binding value obtained in the presence of fibrils. Binding parameters were estimated by computerised non-linear regression analysis according to the Hill equation. Data are expressed as nanomoles of compound bound per mg of peptide monomer (Bmax)

Row | SMILES | remaining activity at 30 µM (Aβ25-35 peptide) [%] | EC50 (Aβ25-35 fibrils) [µM] | Bmax (nanomoles of compound bound per mg of peptide monomer) (Aβ1-40 fibrils) [nmoles/mg Aβ1-40]
1 | COc1cccc2c1C(=O)c1c(O)c3c(c(O)c1C2=O)C[C@@](O)(C(=O)CO)C[C@@H]3O[C@H]1C[C@H](NC(=O)C(F)(F)F)[C@H](I)[C@H](C)O1 [Compound A1, N-trifluoroacetyl-4'-iododoxorubicin] | 20.6 |  | 
2 | COc1cccc2c1C(=O)c1c(O)c3c(c(O)c1C2=O)C[C@@](O)(C(=O)CN1CCN(C(=O)C(F)(F)F)CC1)C[C@@H]3O [Compound A2, 14-(4-trifluoroacetylpiperazin-1-yl)-daunomycinone] | 22.2 |  | 
3 | COc1cccc2c1C(=O)c1c(O)c3c(c(O)c1C2=O)C[C@@](O)(C(=O)CN1CCN(S(=O)(=O)C(F)(F)F)CC1)C[C@@H]3O [Compound A3, 14-(4-trifluoromethanesulphonylpiperazin-1-yl)-daunomycinone] | 23 | 8.16 ± 1.32 | 
4 | COc1cccc2c1C(=O)c1c(O)c3c(c(O)c1C2=O)C[C@@](O)(C(=O)CN1CCN(c2cccc(C(F)(F)F)c2)CC1)C[C@@H]3O [Compound A4, 14-[4-(3-trifluoromethylphenyl)piperazin-1-yl]-daunomycinone] | 22.3 |  | 
5 | CCN(CC(=O)[C@]1(O)Cc2c(O)c3c(c(O)c2[C@@H](O)C1)C(=O)c1c(OC)cccc1C3=O)Cc1cc(C(F)(F)F)cc(C(F)(F)F)c1 [Compound A5, 14-[N-ethyl-N-(3,5-bis-trifluoromethylphenyl)methyl]daunomycinone] | 23.1 |  | 223.1

Other lines, results leading:

Row | remaining activity at 30 µM (Aβ25-35 peptide) [%] | EC50 (Aβ25-35 fibrils) [µM] | Bmax (nanomoles of compound bound per mg of peptide monomer) (Aβ1-40 fibrils) [nmoles/mg Aβ1-40] | SMILES
6 | 35 |  |  | COc1cccc2c1C(=O)c1c(O)c3c(c(O)c1C2=O)C[C@@](O)(C(=O)CN(Cc1ccccc1)CC(F)(F)F)C[C@@H]3O [Compound A6, 14-[N-benzyl-N-(2,2,2-trifluoroethyl)]amino-daunomycinone]
7 | 33.2 |  |  | COc1cccc2c1C(=O)c1c(O)c3c(c(O)c1C2=O)C[C@@](O)(C(=O)CN1CC=CCC1)C[C@@H]3O[C@H]1C[C@H](NC(=O)C(F)(F)F)[C@H](I)[C@H](C)O1 [Compound A7, 14-(1,2,3,6-tetrahydropyridin-1-yl)-4'-deoxy-4'-iodo-3'-N-trifluoroacetyl daunorubicin]
8 | 41 | 52 ± 10.7 | 122.2 | COc1cccc2c1C(=O)c1c(O)c3c(c(O)c1C2=O)C[C@@](O)(C(=O)CO)C[C@@H]3O[C@H]1C[C@H](N)[C@H](I)[C@H](C)O1 [IDOX, iododoxorubicin, reference compound]
